Measured values reported in patent US6653529B2, “Use of the maize X112 mutant ahas 2 gene and imidazolinone herbicides for selection of transgenic monocots, maize, rice and wheat plants resistant to the imidazolinone herbicides” (BASF Aktiengesellschaft, priority 2000, dated 2003).
Several values for one entry are separate records, joined by “and”; a condition that tells them apart may be missing. Identical values can stand only once.

Assays:
Format in all cases: in vivo
[1] = test system: 3395IR (homozygous XA17 imi-resistant corn line); assay: Greenhouse spray test of corn lines with imidazolinone herbicides, injury score; settings: for Score, individual plants (0 dead plants, 5 healthy plants with no injury): 16 days after treatment; for M.S.: score 0 (dead) to 5 (healthy), 16 days
Description: (§1) Grow one corn plant per pot (5×5 inch) in a 3×5 flat till three- to four-leaf stage (about 9 to 13 days depending on the weather). On the day of spraying, water the plants well and let excess water drip out. Spray plants on a belt-sprayer with the imidazolinone herbicides at desired rates. […] When temperature was too high, base water plants to prevent wilting. Closely observe the plants for the next two to three weeks. Symptoms of herbicide injury will be visible three days after spraying and susceptible plants will die within two to three weeks depending on temperature.
(§2) The plants were rated on a scale of 0-5 with 0 for dead plants and 5 for healthy plants with no or minimum injury.
(§3) Two transgenic hybrids BAa-4 and MAa-7 lines (see FIG. 5 for their pedigree), a non-transformed control line B×A (B73×A188), 8962IT (heterozygous XI12 imi-tolerant corn line), 8962 (wild type control) and 3395IR (homozygous XA17 imi-resistant corn line) (8962IT and 8962 were from ICI, now Garst Seed Company, Slater, Iowa 50244, and 3395IR was from Pioneer Hi-Bred International Inc, Iowa 50306-3453). Plants were sprayed with 4, 8, 16 or 20×PURSUIT® imazethapyr, ARSENAL® imazapyr, CADRE® imazameth or RAPTOR® imazamox. Plants were scored 0 to 5 (with 0 being dead plants, 5 being healthy plants with no injury) individually 16 days after herbicide treatments. […] For the four tested imidazolinones, transgenic plants could tolerate higher rates of ARSENAL® imazapyr, PURSUIT® imazethapyr, than CADRE® imazameth and RAPTOR® imazamox.

[2] = test system: transgenic corn hybrid MAa-7; assay: as above; settings: MAa-7; for Score, individual plants (0 dead plants, 5 healthy plants with no injury): 16 days after treatment; for M.S.: score 0 (dead) to 5 (healthy), 16 days
Description: as §1, §2, §3

[3] = test system: transgenic corn hybrid BAa-4; assay: as above; settings: BAa-4; for Score, individual plants (0 dead plants, 5 healthy plants with no injury): 16 days after treatment; for M.S.: score 0 (dead) to 5 (healthy), 16 days
Description: as §1, §2, §3

[4] = test system: non-transformed control corn line BxA (B73×A188); assay: as above; settings: for Score, individual plants (0 dead plants, 5 healthy plants with no injury): 16 days after treatment; for M.S.: score 0 (dead) to 5 (healthy), 16 days
Description: as §1, §2, §3

[5] = test system: 8692IT (heterozygous XI12 imi-tolerant corn line); assay: as above; settings: for Score, individual plants (0 dead plants, 5 healthy plants with no injury): 16 days after treatment; for M.S.: score 0 (dead) to 5 (healthy), 16 days
[6] = test system: 8692 (wild type control corn line); assay: as above; settings: for Score, individual plants (0 dead plants, 5 healthy plants with no injury): 16 days after treatment; for M.S.: score 0 (dead) to 5 (healthy), 16 days
[7] = test system: rice plants (transgenic Lines 26 and 29; Nt control); assay: Greenhouse herbicide tests on rice; settings: for average seed set in two transgenic lines: PURSUIT, RAPTOR, CADRE, SCEPTER at all rates tested, ARSENAL 1 to 2×; for rate at which growth of transgenic plants was slightly affected: post-emergence, fresh weight and visual observation
Description: We evaluated the response of transgenic rice to PURSUIT® imazethapyr application in the greenhouse. In this experiment, we included 2 transgenic lines and their untransformed counterpart (Nt). The transgenic lines, designated as Line 26 and 29, were T3 progeny derived from previously identified homozygous resistant transgenic plants containing the maize XI12 ahas2 gene driven by its own promoter. All seeds were pre-germinated in water for 2-3 days then grown in a planting mixture consisting of 1:1 soil and MetroMix 360 (The Scotts Company, Marysville, Ohio 43040) in 6-inch pots (2 seeds per pot) in the greenhouse and sprayed with PURSUIT® imazethapyr at 63, 125, or 250 g ai/ha. For post-emergence application, the plants were sprayed 15 days after seeding, at which time most plants had 3 leaves. For pre-emergence treatment, PURSUIT® imazethapyr was sprayed one day after seeding. Each treatment contained 20 plants and, and 3 replicates per treatment. One set of materials was not sprayed and used as control. The plants were grown in the greenhouse and harvested at maturity. The amount of PURSUIT® imazethapyr applied in this study (63, 125, or 250 g ai/ha) was close to 1, 2 or 4× field application rate for imi-resistant corn (refer to Table 3) since PURSUIT® imazethapyr is not currently labeled for use in rice fields. A custom designed belt sprayer was operated as described (Newhouse et al. 1992) for all herbicide applications. Five plants from each treatment were randomly chosen and individually measured for morphological traits. Means and standard deviations were calculated over three replications. Plant heights were measured from the base of the plant to the tip of the flag leaf 93 days after herbicide applications (DAH) and number of tillers per plant were counted 102-103 DAH. Data on number of panicles per plant and yield were collected after plants were harvested.
A total of 9 herbicides, 5 imidazolinones, two rice herbicides and ACCENT® (nicosulfuron) and CLASSIC® (clorimuron-ethyl) were applied in this study. Materials and methods were basically the same as described above, except that instead of 6″ pots, flats with 18 (3″×3″ per cell) cells were used, and 10-12 seeds were planted to one 3″×3″ cell. Ten plants were maintained in one cell in the post-emergence application. Each herbicide was sprayed at 4 different rates, 1, 2, 4, and 6×, as either pre or post-emergence applications with three replications per treatment. The name and amount of herbicide applied in this experiment and information relevant to their commercial applications are listed in Table 3. For simplicity and convenience, the lowest concentration used is referred as 1× rate, 2, 4 and 6× rates can be calculated as multiples of 1×.
To monitor plant response to various herbicides, data on fresh weight was collected. For pre-emergence applications, all plants from one cell were harvested 32 days after spraying (36-day old plants) and weighed. Twenty-nine days after herbicide application, 5 plants (44-day old plants) from each cell in the post-emergence application, were cut and weighed individually. Mean fresh weight for each treatment was calculated over three replications. The remaining 5 plants were grown in the greenhouse to maturity at which time, panicles of 3 plants were collected, and number of filled seeds and number of total kernels were counted to determine percentage of seed set.

[8] = 4×: PURSUIT 250, RAPTOR 160, ARSENAL 96, CADRE 400 g/ha
[9] = 8×: PURSUIT 500, RAPTOR 320, ARSENAL 192, CADRE 800 g/ha
[10] = 16×: RAPTOR 640 g/ha, ARSENAL 384 g/ha, CADRE 1.6 kg/ha

Row | SMILES | Score, individual plants (0 dead plants, 5 healthy plants with no injury) [1, 8] | M.S. [1, 8] | Score, individual plants (0 dead plants, 5 healthy plants with no injury) [1, 9] | M.S. [1, 9] | Score, individual plants (0 dead plants, 5 healthy plants with no injury) [1, 10] | M.S. [1, 10] | Score, individual plants (0 dead plants, 5 healthy plants with no injury) [2, 8] | M.S. [2, 8] | Score, individual plants (0 dead plants, 5 healthy plants with no injury) [2, 9] | M.S. [2, 9] | Score, individual plants (0 dead plants, 5 healthy plants with no injury) [2, 10] | M.S. [2, 10] | Score, individual plants (0 dead plants, 5 healthy plants with no injury) [3, 8] | M.S. [3, 8] | Score, individual plants (0 dead plants, 5 healthy plants with no injury) [3, 9] | M.S. [3, 9] | Score, individual plants (0 dead plants, 5 healthy plants with no injury) [3, 10] | M.S. [3, 10] | Score, individual plants (0 dead plants, 5 healthy plants with no injury) [4, 8] | M.S. [4, 8] | other results
1 | CC(C)C1(C)N=C(c2ncccc2C(=O)O)NC1=O (stereo not drawn) [ARSENAL ®, imazapyr] | 5 | 5 | 5 | 5 | 4 and 5 (4×) | 4.8 | 5 | 5 | 5 | 5 | 5 (4×) and 4 | 4.8 | 5 | 5 | 5 | 5 | 5 (2×) and 4 (3×) | 4.4 | 0 | 0 | Score, individual plants (0 dead plants, 5 healthy plants with no injury) [4, 9]: 0; M.S. [4, 9]: 0; Score, individual plants (0 dead plants, 5 healthy plants with no injury) [4, 10]: 0; M.S. [4, 10]: 0; Score, individual plants (0 dead plants, 5 healthy plants with no injury) [5, 8]: 4; M.S. [5, 8]: 4; Score, individual plants (0 dead plants, 5 healthy plants with no injury) [5, 9]: 4 (2×) and 3 (3×); M.S. [5, 9]: 3.4; Score, individual plants (0 dead plants, 5 healthy plants with no injury) [5, 10]: 4 and 3 (4×); M.S. [5, 10]: 3.2; Score, individual plants (0 dead plants, 5 healthy plants with no injury) [6, 8]: 0; M.S. [6, 8]: 0; Score, individual plants (0 dead plants, 5 healthy plants with no injury) [6, 9]: 0; M.S. [6, 9]: 0; Score, individual plants (0 dead plants, 5 healthy plants with no injury) [6, 10]: 0; M.S. [6, 10]: 0; seed set in the two transgenic lines ([7]; 4× (96 g ai/ha) and 6× (144 g ai/ha)): ≤ 20%; average seed set in two transgenic lines [7]: about 85%; effect on seed set of transgenic plants ([7]; higher rates): severe sterility; rate at which growth of transgenic plants was slightly affected [7]: 6 ×
2 | Cc1cnc(C2=NC(=O)C(C)(C(C)C)N2)c(C(=O)O)c1 (stereo not drawn) [CADRE ®, imazameth] | 5 | 5 | 5 | 5 | 4 (2×) and 5 (3×) | 4.6 | 5 (4×) and 4 | 4.8 | 2 (2×) and 4 (2×) and 3 | 3 | 0 (2×) and 1 (3×) | 0.6 | 5 | 5 | 3 (2×) and 2 (3×) | 2.4 | 3 and 1 and 0 (3×) | 0.8 | 0 | 0 | Score, individual plants (0 dead plants, 5 healthy plants with no injury) [4, 9]: 0; M.S. [4, 9]: 0; Score, individual plants (0 dead plants, 5 healthy plants with no injury) [4, 10]: 0; M.S. [4, 10]: 0; Score, individual plants (0 dead plants, 5 healthy plants with no injury) [5, 8]: 4 (3×) and 5 (2×); M.S. [5, 8]: 4.4; Score, individual plants (0 dead plants, 5 healthy plants with no injury) [5, 9]: 3 (3×) and 2 (2×); M.S. [5, 9]: 2.6; Score, individual plants (0 dead plants, 5 healthy plants with no injury) [5, 10]: 1 (2×) and 2 (3×); M.S. [5, 10]: 1.6; Score, individual plants (0 dead plants, 5 healthy plants with no injury) [6, 8]: 0; M.S. [6, 8]: 0; Score, individual plants (0 dead plants, 5 healthy plants with no injury) [6, 9]: 0; M.S. [6, 9]: 0; Score, individual plants (0 dead plants, 5 healthy plants with no injury) [6, 10]: 0; M.S. [6, 10]: 0; average seed set in two transgenic lines [7]: about 85%; rate at which growth of transgenic plants was slightly affected [7]: 6 ×
